# Test results: patent US4407795A, “Inclusion compound of p-hexadecylamino benzoic acid in cyclodextrin and method of use” (American Cyanamid Company, priority 1981, dated 1983)
# Entries after “also recorded” stand apart in the source; their conditions may differ.
# Assays:
# [1] = in vivo; cited from earlier work
# [2] = rat; cited from earlier work
# Serum lipoproteins = assay type: in vivo
# [3] = system: fatty acyl-CoA: cholesterol acyl transferase (ACAT); experiment: Inhibition of arterial cholesterol-esterifying enzyme; assay type: biochemical; settings: in words
# [4] = Luminal narrowing and myocardial blood flow; assay type: in vivo
# [5] = Effects on arterial wall / atherosclerotic plaque; assay type: in vivo
# [6] = in words; cited from earlier work
# [7] = mainly as glucose formed by enzymatic hydrolysis; cited from earlier work
# [8] = cited from earlier work
smiles,measurement,setting,value
CCOC(=O)C(C)(C)Oc1ccc(Cl)cc1 [clofibrate],lowering blood lipids,[1],effective to varying degrees in lowering blood lipids
N[C@H](Cc1cc(I)c(Oc2cc(I)c(O)c(I)c2)c(I)c1)C(=O)O [D-thyroxine],lowering blood lipids,[1],effective to varying degrees in lowering blood lipids
COc1ccc2c(c1)c(CC(=O)O)c(C)n2C(=O)c1ccc(Cl)cc1 [Indomethacin],bioavailability with β-cyclodextrin,[2],enhance the bioavailability
CCCCCCCCCCCCCCCCNc1ccc(C(=O)[O-])cc1.[Na+] [p-hexadecylamino benzoic acid sodium salt],"high-density lipoprotein in the serum, increase",Serum lipoproteins; in vivo,2 fold
same,HDL concentrations,Serum lipoproteins; in words,elevates HDL concentrations
same,very low-density lipoproteins,Serum lipoproteins; in words,antiatherogenic decrease in the atherogenic very low-density lipoproteins
same,inhibition of arterial cholesterol-esterifying enzyme (ACAT),[3],inhibited by this compound
same,reduction in the luminal narrowing,[4]; 4 major coronary arteries,2 fold
same,luminal narrowing in major peripheral arteries,[4]; major peripheral arteries,Reductions in luminal narrowing are seen in major peripheral arteries as well
same,myocardial blood flow,[4]; non-stressed and stressed heart,increases in myocardial blood flow in the non-stressed and the stressed heart
same,area and thickness of the plaque (incidence and severity of plaque formation),[5]; arterial wall,decrease of both the area and the thickness of the plaque
same,deposition of collagen and elastin,[5]; arterial wall,reduction of deposition of connective-tissue collagen and elastic-fiber elastin
same,formation of the extracellular matrix and trapping of very low-density lipoproteins,[5]; arterial wall,lowering of the formation of the extracellular matrix and its trapping of very low-density lipoproteins
same,immobilization of cholesterol in the form of ester,[5]; arterial wall,decreased immobilization of cholesterol in the form of ester
same,smooth-muscle cell proliferation,[5]; arterial wall,decreased smooth-muscle cell proliferation
same,calcium deposition,"[5]; arterial wall / plaque, sodium salt",reduced calcium deposition; also recorded: minimizes the calcium deposition in the plaque
same,progression of atherosclerosis,[5]; in words,inhibit the progression of atherosclerosis
OC[C@H]1O[C@@H]2O[C@H]3[C@H](O)[C@@H](O)[C@@H](O[C@H]4[C@H](O)[C@@H](O)[C@@H](O[C@H]5[C@H](O)[C@@H](O)[C@@H](O[C@H]6[C@H](O)[C@@H](O)[C@@H](O[C@H]7[C@H](O)[C@@H](O)[C@@H](O[C@H]8[C@H](O)[C@@H](O)[C@@H](O[C@H]1[C@H](O)[C@H]2O)O[C@@H]8CO)O[C@@H]7CO)O[C@@H]6CO)O[C@@H]5CO)O[C@@H]4CO)O[C@@H]3CO [β-cyclodextrin],toxicity,[6],lack of toxicity
same,absorbed by man upon oral administration,[7],less than 0.01%
CCCCCCCCCCCCCCCCCC(=O)O [stearic acid],bioavailability with β-cyclodextrin,[2],enhance the bioavailability
O=C(O)c1cccnc1 [nicotinic acid],lowering blood lipids,[1],effective to varying degrees in lowering blood lipids
O=C(O)c1ccccc1O [salicylic acid],bioavailability in man as β-cyclodextrin inclusion compound,[8],increased bioavailability
